Like-named read-outs stand apart in the source and are kept apart here.
Experiments:
Caco-2 cells [1] = assay: MTT antiproliferative assay in Caco-2 cells; type: cell-based, human; details: for IC50: Homo sapiens, Caco-2, antiproliferative, MTT, mean ± SD (n = 3)
Description: (§1) The cell lines were obtained from the American Type Culture Collection (ATCC, Rockville, MD, USA) and cultured according to the ATCC. The human colon cancer cell lines Caco-2 (p53-null) and HT-29 (mutant p53), and non-tumorigenic colon cells CCD18-Co (wild-type p53) were grown as reported elsewhere. All tested compounds were solubilized in DMSO (<0.5% in the culture medium) and filter-sterilized (0.2 μm) before addition to the culture media. […] The effects of the compounds on Caco-2, HT-29, and CCD18-Co cell viability and proliferation were measured using the MTT reduction assay according to Giménez-Bastida et al.. Data are presented as the mean ± standard deviation (SD) of at least three independent experiments (n = 2 wells for each compound (dose and time point) per experiment). Then, IC50 antiproliferative values were determined using a four-parameter logistic regression fit. The calculations were performed using the online tool Quest Graph^TM IC50 Calculator (AAT Bioquest, Inc., Sunnyvale, CA, USA (https://www.aatbio.com/tools/ic50-calculator, accessed on 26 April 2022).

HT-29 cells [2] = assay: MTT antiproliferative assay in HT-29 cells; type: cell-based, human; details: for IC50: Homo sapiens, HT-29, antiproliferative, MTT, mean ± SD (n = 3); for IC50 decrease from 48 to 72 h in HT-29: ratio of IC50 at 48 h vs 72 h (Figure S1)
Description: as §1

Caco-2 cells [3] = assay: Apoptosis induction in Caco-2 cells (Annexin V/PI, flow cytometry); type: cell-based, human; details: Caco-2, 72 h, compound at its IC50 concentration
Description: (§2) The effects of all the compounds at their corresponding IC50 values for 3 days of treatment on cell cycle distribution in Caco-2 cells were measured as described previously. Data are shown as the mean ± SD of 3 independent experiments (2 wells per treatment) for each time point. In addition, the apoptosis induction exerted by all the compounds at their corresponding IC50 values for 3 days of treatment was examined using the Annexin V/PI detection kit (Molecular Probes, ThermoFisher Scientific, Madrid, Spain) as described previously. Briefly, 20,000 Caco-2 cells per sample were analyzed by flow cytometry (Coulter, EPICS XL-MCL, Miami, FL, USA), and staurosporine 5 μM was used as a standard inducer of apoptosis. Finally, the percentage of alive (negative in both annexin V-FITC and PI), early apoptotic (positive in annexin V-FITC and negative in PI), late apoptotic (positive in both annexin V-FITC and PI), and necrotic cells (only positive in PI) was calculated. Data are shown as the mean ± SD of 3 independent experiments (2 wells per treatment) for each time point.

Caco-2 cells [4] = assay: Cell cycle distribution in Caco-2 cells (flow cytometry); type: cell-based, human; details: Caco-2, 72 h, compound at its IC50 concentration, p < 0.05 vs control
Description: as §2

Caco-2 cells [5] = assay: Phase-II metabolism of compounds by Caco-2 cells (UPLC-QTOF-MS of culture media); type: in vitro ADME, human; details: 50 μM, 72 h incubation
Description: (§3) Briefly, cell culture supernatants were collected at the end of the experiment and analyzed to measure the presence and concentration of the tested compounds. First, ACN (200 μL) was added per 200 μL of culture media, vortexed, and centrifuged at 16,435× g for 10 min. The supernatant was then concentrated in a Speedvac® concentrator (Savant SPD 121P), and then the residue was redissolved in 100 μL of MeOH and filtered (0.45 μm) before analysis by UPLC-QTOF-MS.
(§4) Briefly, the analyses were performed on an Agilent 1290 Infinity UPLC system coupled to a 6550 Accurate-Mass quadrupole-time-of-flight (QTOF) mass spectrometer (Agilent Technologies, Waldbronn, Germany) using an electrospray interface (Jet Stream Technology). Chrysin was used as an internal control of the ionization signal. Spectra were acquired in the m/z range from 100 to 1100, in negative polarity mode (m/z^−) and an acquisition rate of 1.5 spectra/s. Data were processed using the Mass Hunter Qualitative Analysis software (version B.06.00, Agilent). […]
(§5) A direct comparison with the available standards was used to identify the different metabolites. […] In addition, using extracted ion chromatograms (EICs) for area calculation and quantification reduced the possibility of misinterpreting overlapping peaks.

HT-29 cells [6] = assay: Phase-II metabolism of compounds by HT-29 cells (UPLC-QTOF-MS of culture media); type: in vitro ADME, human; details: 50 μM, 24 h incubation
Description: as §3, §4, §5

[7] = parameters: method as in PMID 35981285; details: cited from earlier work
CCD18-Co cells = assay: MTT antiproliferative assay in non-tumorigenic CCD18-Co cells; type: cell-based; details: Homo sapiens, CCD-18Co, 72 h, non-tumorigenic colon cells
Description: as §1

[8] = 48 h, read-out: IC50 Caco-2 (48 h)
[9] = 72 h, read-out: IC50 Caco-2 (72 h)
[10] = 48 h, read-out: IC50 HT-29 (48 h)
[11] = 72 h, read-out: IC50 HT-29 (72 h)

Compound | IC50 (Caco-2 cells [1]; [8]) [µM] | IC50 (Caco-2 cells [1]; [9]) [µM] | IC50 (HT-29 cells [2]; [10]) [µM] | IC50 (HT-29 cells [2]; [11]) [µM] | early-phase apoptotic cells vs control cells (Caco-2 cells [3]) | late-phase apoptotic cells vs control cells (Caco-2 cells [3]) | cell cycle phase increase vs control (Caco-2 cells [4]) | compound metabolized by Caco-2 cells after 72 h (Caco-2 cells [5]) | compound metabolized by HT-29 cells after 24 h (HT-29 cells [6]) | IC50 decrease from 48 to 72 h in HT-29 (HT-29 cells [2]) | concentration reached in the human colon [7] [µM] | IC50 (CCD18-Co cells) [µM] | IC50 decrease from 48 to 72 h in Caco-2 (Caco-2 cells [1]; ratio of IC50 at 48 h vs 72 h (Figure S1)) [fold]
Oc1ccc(C=Cc2cccc(O)c2)cc1 [DHST, 3-(4-hydroxystyryl)phenol] | 57.1 ± 10.2 | 22.7 ± 6.4 | 64.8 ± 15.6 | 48.3 ± 17.8 | statistically significant (p < 0.05) | significant differences (p < 0.05) | significant increase (p < 0.05) was observed at both phases, S and G2/M |  |  |  |  |  | 
Oc1cc(O)cc(/C=C/c2ccc(O)c(O)c2)c1 [PICE, 3,5,3′,4′-tetrahydroxy-trans-stilbene] | 55.4 ± 10.8 | 42 ± 9.8 | 78.5 ± 5.7 | 69.5 ± 4.6 | statistically significant (p < 0.05) | significant differences (p < 0.05) |  |  |  |  |  |  | 
Oc1cc(O)cc(CCc2ccccc2)c1 [DHP, 3-hydroxy-(5-phenethyl)phenol] | 54 ± 3.1 | 73.9 ± 13.8 | > 100 | 82.4 ± 12.1 | statistically significant (p < 0.05) |  |  |  |  |  |  |  | 
COc1cc(/C=C/c2ccc(O)cc2)cc(OC)c1 [PTERO, 3,5-dimethoxy, 4′-hydroxy-trans-stilbene] | 67.6 ± 12.3 | 43 ± 11.6 | 45.1 ± 13.7 | 37.9 ± 5.4 | statistically significant (p < 0.05) | significant differences (p < 0.05) | significant increase (p < 0.05) was observed only at the G2/M phase |  |  |  |  |  | 
Oc1ccc(CCc2ccccc2)cc1 [4HDB, 4-(2-phenylethyl)phenol] | > 100 | 56.9 ± 8 | > 100 | 96.7 ± 6.7 |  |  |  |  |  |  |  |  | 
Oc1ccc(/C=C/c2cc(O)cc(O)c2)cc1 [RSV, 3,5,4′-trihydroxy-trans-stilbene] | 50.4 ± 3.4 | 18.8 ± 1.6 | 68.9 ± 22.6 | 59.1 ± 9.9 |  | significant differences (p < 0.05) |  | 14% | 100% |  |  |  | 
OCc1ccc(/C=C/c2ccccc2)cc1 [4STMe, trans-4-stilbenemethanol] | 88.3 ± 14.6 | 59.9 ± 23.1 | 85.4 ± 16.5 | 57.1 ± 18.9 | statistically significant (p < 0.05) |  |  |  |  |  |  |  | 
Oc1cc(O)cc(/C=C/c2ccccc2)c1 [PINO, 3,5-dihydroxy-trans-stilbene] | 55.3 ± 12.7 | 26.4 ± 7.1 | 37.5 ± 14.3 | 38.1 ± 8 | statistically significant (p < 0.05) |  |  |  |  | no change |  |  | 
Oc1cc(O)cc(/C=C/c2ccc(O)cc2O)c1 [Oxy-RSV, 3,5,2′,4′-tetrahydroxy-trans-stilbene] | 74.7 ± 11.5 | 55.4 ± 2.5 | 96.7 ± 2.4 | 83.4 ± 5.8 | statistically significant (p < 0.05) | significant differences (p < 0.05) |  |  |  |  |  |  | 
Oc1ccc(CCc2cccc(O)c2)cc1 [LUNU, 3-(4-hydroxyphenethyl)phenol] | 84.5 ± 11.7 | 50.5 ± 23.1 | > 100 | 53.2 ± 6.8 |  |  |  |  |  |  | > 100 | 67 | 
Oc1ccc(/C=C/c2ccccc2)cc1 [4HST, 4-Hydroxy-trans-stilbene] | 26.9 ± 8 | 11.4 ± 10.1 | 34 ± 8.1 | 24.4 ± 11.3 |  | significant differences (p < 0.05) | significant increase (p < 0.05) was observed at both phases, S and G2/M | hardly metabolized | fully metabolized | 1.4 fold |  |  | 5
Oc1cccc(CCc2ccccc2)c1 [3HDB, 3-(2-phenylethyl)phenol] | > 100 | 42.9 ± 4.1 | > 100 | 81.7 ± 15.5 | statistically significant (p < 0.05) |  |  |  |  |  |  |  | 
Oc1ccc(CCc2cc(O)cc(O)c2)cc1 [DHRSV, Dihydroresveratrol] | 55.4 ± 10.8 | 33.8 ± 17.8 | > 100 | 69 ± 9.3 | statistically significant (p < 0.05) |  |  |  |  |  | > 100 | 53 | 
